# How the values were obtained:
# involucrin (IVL) = assay: cDNA array, gene expression of IVL; format: cell-based; details: primary epidermal keratinocytes, 24 hours
# Protocol: (§1) The assay is carried out using primary epidermal keratinocytes. […] All-trans retinoic acid is used as positive control. The cells are then cultured at 37° C. and under 5% CO2 for 24 hours.
# (§2) The mRNA is isolated using the RNEASY Minikit test kit from Qiagen in accordance with the instruction manual. 1 μg of the RNA is then in each case converted into cDNA with the aid of the Firsts Strand cDNA synthesis kit from Roche. The 20 μl of cDNA obtained are diluted 1/10, and 110 μl of TaqMan™ Universal PCR Master Mix are in each case added to 110 μl of the cDNA samples. 100 μl are pipetted per slot into the Custom TaqMan™ array cards. The cards are sealed, centrifuged and then measured using the TaqMan™ 7900HT. The values obtained are standardised. Values less than or equal to −1.5 indicate moderate to strong downregulation of the expression of the genes investigated.
# repetin (RPTN) = assay: cDNA array, gene expression of RPTN; format: cell-based; details: primary epidermal keratinocytes, 24 hours
# Protocol: as §1, §2
# Corneodesmosin (CDSN) = assay: cDNA array, gene expression of CDSN; format: cell-based; details: primary epidermal keratinocytes, 24 hours
# Protocol: (§3) The assay is carried out using primary epidermal keratinocytes. After incubation at 37° C. and in a 5% CO2 atmosphere for 48 hours, the culture medium (DPBS and HyQtase cell detachment solution) is removed, and the test substances 4-hydroxy-6-methyl-2-pyrone Ia (40 μM) and 3-((E)-3,7-dimethylocta-2,6-dienyl)-4-hydroxy-6-methyl-2-pyrone Ii ([…]) in assay medium (keratinocytes basal medium M2 and supplement mix) are added. All-trans retinoic acid is used as positive control. The cells are then cultured at 37° C. and under 5% CO2 for 24 hours.
# as §2
# (§4) A second group of genes (Table 2) considered encodes for proteins which correlate with cell-cell connections. Corneodesmosin (CDSN), desmoglein 1 (DSG1), desmoplakin (DSP) and desmocollin 3 (DSC3) are tested, the associated regulation factors are shown in Table 2. […] The downregulation of this protein family is known for retinoids.
# desmoglein 1 (DSG1) = assay: cDNA array, gene expression of DSG1; format: cell-based; details: primary epidermal keratinocytes, 24 hours
# Protocol: as §3, §2, §4
# desmoplakin (DSP) = assay: cDNA array, gene expression of DSP; format: cell-based; details: primary epidermal keratinocytes, 24 hours
# Protocol: as §3, §2, §4
# [1] = tested on: skin explants from the lower abdomen tissue; assay: Ex-vivo study on skin explants, histology; set-up: species or system human
# Protocol: Histological explants having an average diameter of 10 mm from the lower abdomen tissue of a person are prepared. The pieces of tissue are stored in BEM medium in a moist, 5% CO2 atmosphere at 37° C. The tissue is divided into 3 batches of 6 explants each.
# Batch K represents the negative control. Only the vehicle is applied to batch V. Batch P is treated with 4-hydroxy-6-methyl-2-pyrone Ia (1% in Mygliol/ethanol 80/20). 30 μl of the 1% substance solutions in Myliol/ethanol (80/20) are applied using a round filter paper and allowed to act for 2 hours. Applications are carried out on day 0, 1, 4, 6 and 7.
# On the 8th day, 3 pieces of tissue from each batch are fixed in Bouin solution. After fixing for 48 hours, the samples are dehydrated by means of Leica TP 1020 and soaked in paraffin. Tissue sections with a thickness of 5 μm are produced from the paraffin blocks using a microtome and mounted on Superfrost specimen slides. The microscopic investigation is carried out using a Leica Orthoplan microscope after the tissue sections mounted on specimen slides have been stained with Masson-Goldner trichrome stain. In order to be able to assess the effect of the substances, the thickness of the epidermis or the change thereof is measured.
# loricrin (LOR) = assay: cDNA array, gene expression of LOR; format: cell-based; details: primary epidermal keratinocytes, 24 hours
# Protocol: as §1, §2
# [2] = tested on: transglutaminase 1 (TGM1); assay: cDNA array, gene expression of TGM1; format: cell-based; details: primary epidermal keratinocytes, 24 hours
# Protocol: as §3, §2
# desmocollin 3 (DSC3) = assay: cDNA array, gene expression of DSC3; format: cell-based; details: primary epidermal keratinocytes, 24 hours
# Protocol: as §3, §2, §4
# filaggrin (FLG) = assay: cDNA array, gene expression of FLG; format: cell-based; details: primary epidermal keratinocytes, 24 hours
# Protocol: as §3, §2
# calgranulin B (S100A9) = assay: cDNA array, gene expression of S100A9; format: cell-based; details: primary epidermal keratinocytes, 24 hours
# Protocol: as §3, §2
# calgranulin A (S100A8) = assay: cDNA array, gene expression of S100A8; format: cell-based; details: primary epidermal keratinocytes, 24 hours
# Protocol: as §3, §2
# [3] = tested on: calmodulin-like protein (CALML5); assay: cDNA array, gene expression of CALML5; format: cell-based; details: primary epidermal keratinocytes, 24 hours
# Protocol: as §1, §2
# normal human adipocytes = assay: Lipolysis, unesterified fatty acids liberated from adipocytes; format: cell-based; details: 2 hours; for lipolytic activity, dependence on concentration: 0.25 mM, 0.5 mM, 1 mM and 2 mM
# Protocol: The study is carried out using normal human adipocytes originating from the lower abdomen biopsy of a person. The hypodermis is isolated from the biopsy and incubated at 37° C. for 30 minutes with collagenase solution. The separated adipocytes are washed and diluted with assay medium (MEM without Phenol Red, penicillin 25 UI/ml/streptomycin […], L-glutamine 2 mM, bovine serum albumin (BSA), fatty acid-free: 0.5% (p/v)).
# The test solutions or the caffeine reference are added to the cell suspensions, and the mixtures are incubated at 37° C. and in a 5% CO2 atmosphere for 2 hours.
# After this time, the unesterified fatty acids liberated from the samples are quantified. The measurement is carried out using a Wako NEFA-C test kit in accordance with the instruction manual.
structure (smiles),measurement,setting,value
"Cc1cc(O)cc(=O)o1 [Ia, 4-hydroxy-6-methyl-2-pyrone]","IVL gene expression, standardised value",involucrin (IVL); 40 μM,−1.76
same,"RPTN gene expression, standardised value",repetin (RPTN); 40 μM,−3.33
same,"CDSN gene expression, regulation factor",Corneodesmosin (CDSN); 40 μM,−2.14
same,"DSG1 gene expression, regulation factor",desmoglein 1 (DSG1); 40 μM,−1.39
same,"DSP gene expression, regulation factor",desmoplakin (DSP); 40 μM,−1.40
same,collagen network in the dermis along the dermo-epidermal junction zone,"[1]; 1% in Mygliol/ethanol 80/20, topical on day 0, 1, 4, 6 and 7, day 8",becomes denser
same,thicker epidermis compared with the vehicle,"[1]; 1% in Mygliol/ethanol 80/20, topical on day 0, 1, 4, 6 and 7, measured on the 8th day",10%
same,"LOR gene expression, standardised value",loricrin (LOR); 40 μM,−4.56
same,"TGM1 gene expression, standardised value",[2]; 40 μM,−1.26
same,"DSC3 gene expression, regulation factor",desmocollin 3 (DSC3); 40 μM,−1.69
same,"FLG gene expression, standardised value",filaggrin (FLG); 40 μM,1.01
same,"S100A9 gene expression, standardised value",calgranulin B (S100A9); 40 μM,−2.18
same,"S100A8 gene expression, standardised value",calgranulin A (S100A8); 40 μM,−1.74
same,"CALML5 gene expression, standardised value",[3]; 40 μM,−3.14
"COc1cc(C)oc(=O)c1 [Ib, 4-Methoxy-6-methyl-2-pyrone]","lipolytic activity, dependence on concentration",normal human adipocytes,increase the lipolytic activity as a function of concentration
same,stimulation of lipolysis (triacylglycerin degradation),normal human adipocytes; 2 mM,82%
"CC(C)=CCC/C(C)=C/Cc1c(O)cc(C)oc1=O [Ii, 3-((E)-3,7-Dimethylocta-2,6-dienyl)-4-hydroxy-6-methyl-2-pyrone]","IVL gene expression, standardised value",involucrin (IVL); 50 μM,−3.82
same,"RPTN gene expression, standardised value",repetin (RPTN); 50 μM,1.57
same,"CDSN gene expression, regulation factor",Corneodesmosin (CDSN); 50 μM,−13.20
same,"DSG1 gene expression, regulation factor",desmoglein 1 (DSG1); 50 μM,−8.20
same,"DSP gene expression, regulation factor",desmoplakin (DSP); 50 μM,−1.53
same,"LOR gene expression, standardised value",loricrin (LOR); 50 μM,−1.59
same,"TGM1 gene expression, standardised value",[2]; 50 μM,−1.56
same,stimulation of lipolysis (triacylglycerin degradation),normal human adipocytes; 1 mM,−60%
same,stimulation of lipolysis (triacylglycerin degradation),normal human adipocytes; 2 mM,−67%
same,"DSC3 gene expression, regulation factor",desmocollin 3 (DSC3); 50 μM,−1.14
same,"FLG gene expression, standardised value",filaggrin (FLG); 50 μM,−4.67
same,"S100A9 gene expression, standardised value",calgranulin B (S100A9); 50 μM,−1.48
same,"S100A8 gene expression, standardised value",calgranulin A (S100A8); 50 μM,−2.93
same,"CALML5 gene expression, standardised value",[3]; 50 μM,−2.58
"CCCCC(CC)Oc1cc(C)oc(=O)c1 (centres unmarked) [Ij, 4-(1-Ethylpentyloxy)-6-methyl-2-pyrone]","lipolytic activity, dependence on concentration",normal human adipocytes,increase the lipolytic activity as a function of concentration
same,stimulation of lipolysis (triacylglycerin degradation),normal human adipocytes; 2 mM,57%
"CC1=C(/C=C/C(C)=C/C=C/C(C)=C/C(=O)O)C(C)(C)CCC1 [all-trans retinoic acid, All-trans retinoic acid, reference compound]","IVL gene expression, standardised value",involucrin (IVL); 5 μM,−4.05
same,"RPTN gene expression, standardised value",repetin (RPTN); 5 μM,−2.56
same,"CDSN gene expression, regulation factor",Corneodesmosin (CDSN); concentration not given,−2.37
same,"DSG1 gene expression, regulation factor",desmoglein 1 (DSG1); concentration not given,−9.22
same,"DSP gene expression, regulation factor",desmoplakin (DSP); concentration not given,−1.56
same,"LOR gene expression, standardised value",loricrin (LOR); 5 μM,−7.01
same,"TGM1 gene expression, standardised value",[2]; 5 μM,−3.56
same,"DSC3 gene expression, regulation factor",desmocollin 3 (DSC3); concentration not given,−1.23
same,"FLG gene expression, standardised value",filaggrin (FLG); 5 μM,−3.20
same,"S100A9 gene expression, standardised value",calgranulin B (S100A9); 5 μM,−3.49
same,"S100A8 gene expression, standardised value",calgranulin A (S100A8); 5 μM,−3.26
same,"CALML5 gene expression, standardised value",[3]; 5 μM,−2.93
